Results as given in article PMC5460289, “Identification of New Shikonin Derivatives as Antitumor Agents Targeting STAT3 SH2 Domain” (Scientific Reports, 2017).

Test system: pSTAT3 in MCF-10A cells
Assay: Western blot of pSTAT3 in non-tumorigenic cells
Type: cell-based, human
Conditions: 24 h, increasing doses
Method: Figure 7 MDA-MB-231 cells were treated with indicated concentrations of PMM-172 or Stattic for 24 h, the expression levels of STAT3 in cytoplasmic and nuclear extracts were examined and relative expression levels were analyzed by Image J software. β-actin and Lamin B1 served as markers of cytoplasmic and nuclear extractions, respectively. […] (C) MCF-10A cells were treated with the indicated concentrations of PMM-172 for 24 h. PMM-172 had no effect on the level of the pSTAT3 level in MCF-10A cells. […] Data were shown as mean ± SD from three independent experiments, **P < 0.01. Cropped blots/gels were used in the figure and the gels had been run under the same experimental conditions; the full-length blots/gels are presented in Supplementary Figure S3.
In the following work, we examined whether PMM-172 could affect the activity of STAT3 and viability in non-cancer cells. The non-tumorigenic MCF-10A epithelial cells were employed to be treated with increasing doses of PMM-172 to conduct this assay.
Cells were rinsed twice with cold PBS and then lysed with RIPA buffer containing a protease inhibitor mixture at 1:100 dilution on ice for 30 min. Insoluble components of cell lysates were removed by centrifugation (4 °C, 12000 rmp, 10 min), and protein concentrations were measured using a Pierce BCA protein assay kit. […]

COc1cc(OC)cc(-c2nnc(SCC(=O)O[C@H](CC=C(C)C)C3=CC(=O)c4c(O)ccc(O)c4C3=O)o2)c1 [PMM-172, (R)-1-(5,8-dihydroxy-1,4-dioxo-1,4-dihydronaphthalen-2-yl)-4-methylpent-3-en-1-yl 2-((5-(3,5-dimethoxyphenyl)-1,3,4-oxadiazol-2-yl)thio)acetate]
expression levels of total STAT3 in MCF-10A cells: kept unchanged
pSTAT3 level in MCF-10A cells: had no effect
